In ChEMBL document CHEMBL1201862, “PubChem BioAssay data set” (2004):
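Following 48 hours of exposure in 96-well plates, responses at five concentrations were used to interpolate endpoints linearly. Here, GI50 denotes the concentration required for 50% inhibition of growth.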 Active and inactive are the calls of the source. No stated cut-off is given here; in the data, active = GI50 up to about 1.1 µM and inactive = higher.

Legend:
Experiment in all cases: NCI-60 cell line screen, 48 h
[1] = system: MDA-MB-435
[2] = system: HOP-92
[3] = system: SF-268
[4] = system: HCC 2998
[5] = system: MOLT-4
[6] = system: HCT-116
[7] = system: HT-29
[8] = system: K562
[9] = system: NCI/ADR-RES
[10] = system: UACC-62
[11] = system: MDA-N
[12] = system: T47D
[13] = system: SNB-75
[14] = system: COLO 205
[15] = system: CCRF-CEM
[16] = system: SF-295
[17] = system: OVCAR-8
[18] = system: SK-MEL-5
[19] = system: NCI-H460
[20] = system: HCT-15
[21] = system: OVCAR-5
[22] = system: TK-10
[23] = system: KM12
[24] = system: 786-0
[25] = system: U-251
[26] = system: NCI-H226
[27] = system: Hs-578T
[28] = system: SN12C
[29] = system: RPMI-8226
[30] = system: MDA-MB-231
[31] = system: ACHN
[32] = system: RXF 393
[33] = system: UACC-257
[34] = system: CAKI-1
[35] = system: HOP-62
[36] = system: IGROV-1
[37] = system: PC-3
[38] = system: SK-MEL-2
[39] = system: SNB-19
[40] = system: NCI-H522
[41] = system: UO-31
[42] = system: A549
[43] = system: SW-620
[44] = system: OVCAR-4
[45] = system: LOX IMVI
[46] = system: DU-145
[47] = system: M14
[48] = system: OVCAR-3
[49] = system: A498
[50] = system: NCI-H23
[51] = system: SK-MEL-28
[52] = system: HL-60
[53] = system: SK-OV-3
[54] = system: SF-539
[55] = system: SR
[56] = system: EKVX
[57] = system: MCF7
[58] = system: Malme-3M

Measured: GI50

Cc1ccc(S(=O)(=O)n2c3ccc(Br)cc3c3nc4ccccc4nc32)cc1
active: [26] 0.183 µM | [36] 0.689 µM | [40] 0.649 µM
inactive: [1] > 100 µM | [2] > 100 µM | [3] > 100 µM | [4] > 100 µM | [5] > 100 µM | [6] > 100 µM | [7] > 100 µM | [8] > 100 µM | [9] > 100 µM | [10] > 100 µM | [11] > 100 µM | [12] > 100 µM | [13] > 100 µM | [14] > 100 µM | [15] > 100 µM | [16] > 100 µM | [17] > 100 µM | [18] > 100 µM | [19] > 100 µM | [21] > 100 µM | [22] > 100 µM | [23] > 100 µM | [24] > 100 µM | [25] > 100 µM | [27] > 100 µM | [28] > 100 µM | [29] > 100 µM | [30] > 100 µM | [31] > 100 µM | [32] > 100 µM | [33] > 100 µM | [34] > 100 µM | [35] > 100 µM | [37] > 100 µM | [38] > 100 µM | [39] > 100 µM | [41] > 100 µM | [42] > 100 µM | [43] > 100 µM | [44] 72.8 µM | [45] > 100 µM | [46] > 100 µM | [47] > 100 µM | [48] > 100 µM | [49] > 100 µM | [50] > 100 µM | [51] > 100 µM
> 100 µM: [20]

CC(C)=C=CP(=O)(O)c1ccccc1
> 100 µM: [20]
inactive: [1] > 100 µM | [2] > 100 µM | [52] > 100 µM | [3] > 100 µM | [4] > 100 µM | [6] > 100 µM | [7] > 100 µM | [8] > 100 µM | [53] > 100 µM | [9] > 100 µM | [10] > 100 µM | [54] > 100 µM | [11] > 100 µM | [12] > 100 µM | [13] > 100 µM | [14] > 100 µM | [16] > 100 µM | [17] > 100 µM | [18] > 100 µM | [19] > 100 µM | [21] > 100 µM | [22] > 100 µM | [23] > 100 µM | [24] > 100 µM | [25] > 100 µM | [26] > 100 µM | [27] > 100 µM | [28] > 100 µM | [31] > 100 µM | [33] > 100 µM | [34] > 100 µM | [35] > 100 µM | [36] > 100 µM | [37] > 100 µM | [38] > 100 µM | [39] > 100 µM | [40] > 100 µM | [55] > 100 µM | [42] > 100 µM | [43] > 100 µM | [44] > 100 µM | [45] > 100 µM | [56] > 100 µM | [46] > 100 µM | [47] > 100 µM | [48] > 100 µM | [49] > 100 µM | [50] > 100 µM | [57] > 100 µM | [58] > 100 µM | [51] > 100 µM
